target: T1, CD73 (Homo sapiens, UniProt P21589); assay: Example A1: Biochemical Assay (CD73 inhibition, Malachite Green detection of AMP hydrolysis); conditions: CD73 0.3208 nM, AMP 15 μM, Tris-HCl pH 7.4, Malachite Green, absorbance 620 nm; read-out: Biochemical IC50
T1 sequence (P21589 27-549): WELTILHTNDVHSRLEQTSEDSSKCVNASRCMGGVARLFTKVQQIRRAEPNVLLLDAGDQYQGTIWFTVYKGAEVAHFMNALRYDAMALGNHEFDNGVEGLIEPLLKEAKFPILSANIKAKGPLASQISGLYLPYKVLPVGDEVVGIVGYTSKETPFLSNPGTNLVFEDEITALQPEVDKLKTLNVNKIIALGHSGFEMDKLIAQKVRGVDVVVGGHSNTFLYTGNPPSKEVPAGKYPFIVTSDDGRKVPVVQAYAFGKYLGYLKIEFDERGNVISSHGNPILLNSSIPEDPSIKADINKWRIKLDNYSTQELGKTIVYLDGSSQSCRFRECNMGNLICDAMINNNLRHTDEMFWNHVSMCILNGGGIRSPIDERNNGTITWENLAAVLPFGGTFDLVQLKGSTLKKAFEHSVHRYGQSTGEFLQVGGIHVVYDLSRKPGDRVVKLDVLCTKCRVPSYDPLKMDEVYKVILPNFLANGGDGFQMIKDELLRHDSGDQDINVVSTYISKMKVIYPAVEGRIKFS
Procedure, shortened: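 CD73 (0.3208 nM) preincubated 15 min at RT with compounds (10-point half-log, from 100 μM, duplicate), then 15 μM AMP for 10 min in 25 mM Tris-HCl pH 7.4, 5 mM MgCl2, 0.01% Brij-35, 0.01% BSA. Released phosphate detected by malachite green absorbance; IC50 determined.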

Compound	IC50 [nM]
O=P(O)(O)CP(=O)(O)OC[C@@H]1C[C@@H](O)[C@H](n2ncc3c(NCc4ccccc4Cl)nc(Cl)nc32)O1 [Example 48, (((((2S,4R,5R)-5-(6-chloro-4-((2-chlorobenzyl)amino)-1H-pyrazolo[3,4-d]pyrimidin-1-yl)-4-hydroxytetrahydrofuran-2-yl)methoxy)(hydroxy)phosphoryl)methyl) phosphonic acid]	< 100
COP(=O)(CP(=O)(O)O)OC[C@H]1O[C@@H](n2ncc3c(NCc4ccccc4Cl)nc(Cl)nc32)[C@H](O)[C@@H]1O (stereo partly drawn) [Example 49, (((((2R,3S,4R,5R)-5-(6-chloro-4-((2-chlorobenzyl)amino)-1H-pyrazolo[3,4-d]pyrimidin-1-yl)-3,4-dihydroxytetrahydrofuran-2-yl)methoxy)(methoxy)phosphoryl)methyl) phosphonic acid]	< 100
CN(c1nc(Cl)nc2c1cnn2[C@@H]1O[C@H](COP(=O)(O)CP(=O)(O)O)[C@@H](O)[C@H]1O)[C@@H]1CCc2ccccc21 [Example 50, (((((2R,3S,4R,5R)-5-(6-chloro-4-(((R)-2,3-dihydro-1H-inden-1-yl)(methyl)amino)-1H-pyrazolo[3,4-d]pyrimidin-1-yl)-3,4-dihydroxytetrahydrofuran-2-yl)methoxy)(hydroxy)phosphoryl)methyl) phosphonic acid]	< 100

From US11576922B2, “CD73 inhibitors” (ORIC Pharmaceuticals, Inc., priority 2017, dated 2023)
